In patent US11723877B2, “Microencapsulation process and product” (SPI PHARMA, INC., priority 2010, dated 2023):

Columns and labels:
physchem = details: aqueous buffer
[1] = Dissolution of orally dispersible acetaminophen powder, USP apparatus IV flow through cell, phosphate buffer pH 5.8; format: physicochemical; details: phosphate buffer pH 5.8, 37° C., 16 mL/min, 900 mL, ODP 160 mg, average of two
Text: A USP apparatus IV flow through cell was used to measure the dissolution of three orally dispersible powder blends of acetaminophen. Powder blends were made up of: Example 7 (SPI Pharma); uncoated Acetaminophen (Covidien, St. Louis, Mo.)) special granular; and Eurand (Dayton, Ohio) taste-masked Acetaminophen. Each sample was weighed and mixed by the process of spatulation until mixed. This mixture was passed through #30 mesh ASTM and packed in stick packs.
(§1) An amount of sample equivalent to contain 160 mg of Acetaminophen was weighed out and placed in the bead mixture of the flow through cell. At a rate of 16 ml/min, a 37° C. pH 5.8 phosphate buffer was pumped through cell and the effluent from the cell was collected in a reservoir vessel and samples removed for subsequent analysis in HPLC for Acetaminophen content at the time point specified. The data is an average of two determinations.

[2] = Dissolution of orally dispersible ibuprofen powder, USP apparatus IV flow through cell, phosphate buffer pH 7.2; format: physicochemical; details: phosphate buffer pH 7.2, 37° C., 16 mL/min, 900 mL, ODP 200 mg, average of two
Method: A USP apparatus IV flow through cell was used to measure the dissolution of three orally dispersible powder blends of Ibuprofen. Powder blends were made up of: Example 6 (SPI Pharma); uncoated Ibuprofen 50 (BASF, Florham Park, N.J.); and Dasan Medichem (Soul, Korea) taste-masked Ibuprofen. Each sample was weighed and mixed by the process of spatulation until mixed. This mixture was passed through #30 mesh ASTM and packed in stick packs.
as §1, with “200” for “160”, “Ibuprofen” for “Acetaminophen”, “7.2” for “5.8”

[3] = Acetaminophen dissolution, USP method (900 mL water, 50 rpm, Apparatus 2); format: physicochemical; details: first of five data columns, no own time in head (taken as 0 min)
Method: Acetaminophen dissolution was compared between microcapsules prepared from Run #2 and Run #4, an uncoated acetaminophen standard and a commercial acetaminophen coated with ethylcellulose by USP dissolution method for Acetaminophen (900 mL water, 50 rpm, Apparatus 2).

CC(C)Cc1ccc(C(C)C(=O)O)cc1 (centres unmarked) [uncoated ibuprofen, ibuprofen]
solubility (physchem): < 1000 µM

CC(=O)Nc1ccc(O)cc1 [Uncoated Acetaminophen, Acetaminophen]
Acetaminophen dissolution % ([1]; 5 min): 95%
Acetaminophen dissolution % ([1]; 10 min): 96%
Acetaminophen dissolution % ([1]; 15 min): 96%
Acetaminophen dissolution % ([1]; 30 min): 96%
Acetaminophen dissolution % ([1]; 45 min): 96%
Acetaminophen dissolution % ([1]; 60 min): 96%

CC(C)Cc1ccc(C(C)C(=O)O)cc1 (centres unmarked) [Plain API, Ibuprofen]
Ibuprofen dissolution % ([2]; 5 min): 70%
Ibuprofen dissolution % ([2]; 10 min): 88%
Ibuprofen dissolution % ([2]; 20 min): 91%
Ibuprofen dissolution % ([2]; 30 min): 94%
Ibuprofen dissolution % ([2]; 45 min): 94%
Ibuprofen dissolution % ([2]; 60 min): 94%

CC(=O)Nc1ccc(O)cc1 [Uncoated Acetaminophen STD, Acetaminophen]
Percent (%) Drug Released [3]: 0%
